Test results as given in patent US20240238424A1, “HETEROBIFUNCTIONAL COMPOUNDS AND METHODS OF TREATING DISEASE” (Halda Therapeutics OpCo, Inc., priority 2021, published 2024).

Key:
Format in all cases: cell-based
GSPT1 = molecular target: T1, GSPT1 (Homo sapiens, UniProt P15170+Q96SW2); assay: GSPT1 HiBit degradation assay; details: Table 3; HEK293 LgBiT cells expressing GSPT1_HiBiT, luminescence after 6 hours
T1 construct: host or cells: HEK293 LgBiT cell line
Procedure, shortened: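 Degradation readout is luminescence at 6 h, with DC50 taken as the concentration giving 50% GSPT1 loss. Compound titrations were added together with endurazine (0.5× final) to HEK293 LgBiT/GSPT1-HiBiT cells seeded the day before and kept at 37 °C.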

22RV1 cells = assay: Cellular growth inhibition assay (CTG), 22RV1 cells; details: Homo sapiens, CellTiter-Glo 2.0, day-5
Method: (§1) Cells were seeded in Poly-D-lysine-treated 384-well white plates, with 25 μL cell suspension at 250 cells/well for continuous treatments, and 1000 cells/well for washout treatments. Plates were spun at 300×g for 3 minutes, and cells were cultured at 37° C. with 5% CO2 in a humidified tissue culture incubator.
(§2) After 24 hours, the test compounds were diluted with cell culture medium in 96 deep well plates. DMSO was used as a negative control. A 25 μL aliquot of compound-containing medium was added in each well, at a final top concentration of 10 μM or 30 μM test compound, with 3-fold dilutions. For washout assays, after 4 hours, cell medium with compound was removed, and the cells were washed with 75p L fresh medium. Plates were then spun at 300×g for 3 minutes and replaced with 50 μL fresh medium in each well. Plates were then spun at 300×g for 3 minutes again and cultured at 37° C. with 5% CO2.
(§3) At day-0 and day-5 of compound treatments, cell viability was quantified with CellTiter-Glo 2.0 (Promega). After equilibrating cell plates at room temperature for 30 minutes, 25 μL CellTiter-Glo 2.0 reagent was dispensed into each well (on top of 50 μL of cell culture). Plates were mixed on a shaker for 2 minutes at 500 rpm, followed by a 10-minute incubation at room temperature. Luminescence readings were measured with an EnVision Plate Reader. Data was normalized to DMSO treated day-0 cell wells. A four-parameter non-linear regression curve fit was applied to dose-response data in Prism to determine the half maximal growth inhibitory concentration (GI50) of each compound.

U937 cells = assay: Cellular growth inhibition assay (CTG), U937 cells; details: Homo sapiens, U-937, CellTiter-Glo 2.0, day-5
Method: as §1, §2, §3

T1 sequence (P15170 whole entry): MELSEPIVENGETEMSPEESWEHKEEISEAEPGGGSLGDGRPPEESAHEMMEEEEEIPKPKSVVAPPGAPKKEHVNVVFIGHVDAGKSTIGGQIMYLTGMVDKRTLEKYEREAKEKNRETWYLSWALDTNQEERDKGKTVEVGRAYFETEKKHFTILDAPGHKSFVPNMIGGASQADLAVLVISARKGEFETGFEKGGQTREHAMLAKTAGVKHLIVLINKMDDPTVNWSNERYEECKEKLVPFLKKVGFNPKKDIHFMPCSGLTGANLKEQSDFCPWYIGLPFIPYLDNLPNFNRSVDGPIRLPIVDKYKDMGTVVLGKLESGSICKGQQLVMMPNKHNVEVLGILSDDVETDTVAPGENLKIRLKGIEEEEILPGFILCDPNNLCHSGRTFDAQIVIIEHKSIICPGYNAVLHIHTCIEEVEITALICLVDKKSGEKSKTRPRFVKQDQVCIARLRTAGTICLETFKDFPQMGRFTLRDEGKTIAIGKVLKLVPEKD
T1 sequence (Q96SW2 whole entry): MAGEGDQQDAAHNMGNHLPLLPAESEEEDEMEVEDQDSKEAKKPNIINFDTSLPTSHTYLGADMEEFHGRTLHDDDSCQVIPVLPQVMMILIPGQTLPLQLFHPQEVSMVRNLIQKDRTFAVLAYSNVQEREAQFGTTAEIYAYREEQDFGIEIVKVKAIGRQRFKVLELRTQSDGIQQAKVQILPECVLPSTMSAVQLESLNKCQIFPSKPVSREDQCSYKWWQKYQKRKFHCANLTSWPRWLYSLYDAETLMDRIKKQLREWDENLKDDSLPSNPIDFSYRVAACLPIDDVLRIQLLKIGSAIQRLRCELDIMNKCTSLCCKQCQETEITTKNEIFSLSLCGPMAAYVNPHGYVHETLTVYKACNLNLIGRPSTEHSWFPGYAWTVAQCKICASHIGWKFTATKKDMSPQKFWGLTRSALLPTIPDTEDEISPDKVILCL
T1 sequence (Q16531 whole entry partner): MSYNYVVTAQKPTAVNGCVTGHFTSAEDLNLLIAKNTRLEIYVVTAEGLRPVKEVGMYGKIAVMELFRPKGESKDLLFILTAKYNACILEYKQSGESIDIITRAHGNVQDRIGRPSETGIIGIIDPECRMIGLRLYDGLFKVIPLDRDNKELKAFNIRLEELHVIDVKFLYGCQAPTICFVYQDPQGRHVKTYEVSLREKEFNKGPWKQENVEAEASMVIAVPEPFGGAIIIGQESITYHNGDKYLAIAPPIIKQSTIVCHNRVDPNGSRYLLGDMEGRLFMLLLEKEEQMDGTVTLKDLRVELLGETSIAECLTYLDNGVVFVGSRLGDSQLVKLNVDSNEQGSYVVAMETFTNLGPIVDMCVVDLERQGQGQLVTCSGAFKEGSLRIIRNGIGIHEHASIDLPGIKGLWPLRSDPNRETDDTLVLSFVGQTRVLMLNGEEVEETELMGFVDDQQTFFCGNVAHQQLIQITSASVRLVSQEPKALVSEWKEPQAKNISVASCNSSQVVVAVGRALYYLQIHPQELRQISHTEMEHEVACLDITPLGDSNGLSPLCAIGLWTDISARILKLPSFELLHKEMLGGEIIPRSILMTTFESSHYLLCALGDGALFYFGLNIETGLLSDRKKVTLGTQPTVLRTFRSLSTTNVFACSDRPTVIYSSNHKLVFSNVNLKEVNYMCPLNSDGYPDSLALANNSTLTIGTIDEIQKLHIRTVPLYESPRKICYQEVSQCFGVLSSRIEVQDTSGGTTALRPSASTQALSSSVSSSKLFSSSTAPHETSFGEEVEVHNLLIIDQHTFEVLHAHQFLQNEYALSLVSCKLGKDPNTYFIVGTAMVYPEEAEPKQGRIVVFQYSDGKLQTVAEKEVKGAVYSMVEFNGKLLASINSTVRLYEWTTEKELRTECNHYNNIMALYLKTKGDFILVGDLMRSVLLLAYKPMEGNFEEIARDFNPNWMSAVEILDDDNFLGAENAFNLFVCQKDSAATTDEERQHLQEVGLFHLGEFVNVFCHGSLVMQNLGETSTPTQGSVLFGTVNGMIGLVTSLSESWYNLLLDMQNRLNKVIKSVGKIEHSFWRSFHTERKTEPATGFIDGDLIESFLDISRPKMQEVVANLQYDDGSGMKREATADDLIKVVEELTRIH

| Compound | DC50 (GSPT1) [nM] | GI50 (22RV1 cells) [nM] | GI50 (U937 cells) [nM] |
| --- | --- | --- | --- |
| CC1(C)[C@H](NC(=O)c2ccc(OCCOCCOCCOCCOCCOCCOCCOCCOCCOCCOCCOc3cc(Cl)cc(NC(=O)NCc4ccc5c(c4)CN(C4CCC(=O)NC4=O)C5=O)c3)cc2)C(C)(C)[C@H]1Oc1ccc(C#N)c(Cl)c1 (stereo partly shown) [Compound I-21, N-[3-(3-chloro-4-cyano-phenoxy)-2,2,4,4-tetramethyl-cyclobutyl]-4-[2-[2-[2-[2-[2-[2-[2-[2-[2-[2-[2-[3-chloro-5-[[2-(2,6-dioxo-3-piperidyl)-1-oxo-isoindolin-5-yl]methylcarbamoylamino]phenoxy]ethoxy]ethoxy]ethoxy]ethoxy]ethoxy]ethoxy]ethoxy]ethoxy]ethoxy]ethoxy]ethoxy]benzamide] | 250 to 5000 | 100 to 1000 | – |
| Nc1ncnc2c1c(-c1ccc(Oc3ccccc3)cc1)nn2[C@@H]1CCCN(C(=O)/C=C/COCCOCCOCCOCCOCCOCCOCCOCCOCCOc2cc(Cl)cc(NC(=O)NCc3ccc4c(c3)CN(C3CCC(=O)NC3=O)C4=O)c2)C1 (stereo partly shown) [Compound I-31] | 250 to 5000 | – | 1000 to 5000 |
| CC1(C)[C@H](NC(=O)c2ccc(OCCOCCOCCOCCOCCOCCOCCOc3cc(Cl)cc(NC(=O)NCc4ccc5c(c4)CN(C4CCC(=O)NC4=O)C5=O)c3)cc2)C(C)(C)[C@H]1Oc1ccc(C#N)c(Cl)c1 (stereo partly shown) [Compound I-19, N-((1r,3r)-3-(3-chloro-4-cyanophenoxy)-2,2,4,4-tetramethylcyclobutyl)-4-((20-(3-chloro-5-(3-((2-(2,6-dioxopiperidin-3-yl)-1-oxoisoindolin-5-yl)methyl)ureido)phenoxy)-3,6,9,12,15,18-hexaoxaicosyl)oxy)benzamide] | 250 to 5000 | < 100 | – |
| CC1(C)[C@H](NC(=O)c2ccc(OCCOCCOCCOCCOCCOCCOCCOCCOCCOc3cc(Cl)cc(NC(=O)NCc4ccc5c(c4)CN(C4CCC(=O)NC4=O)C5=O)c3)cc2)C(C)(C)[C@H]1Oc1ccc(C#N)c(Cl)c1 (stereo partly shown) [Compound I-20, N-[3-(3-chloro-4-cyano-phenoxy)-2,2,4,4-tetramethyl-cyclobutyl]-4-[2-[2-[2-[2-[2-[2-[2-[2-[2-[3-chloro-5-[[2-(2,6-dioxo-3-piperidyl)-1-oxo-isoindolin-5-yl]methylcarbamoylamino]phenoxy]ethoxy]ethoxy]ethoxy]ethoxy]ethoxy]ethoxy]ethoxy]ethoxy]ethoxy]benzamide] | 250 to 5000 | < 100 | – |

Further lines, results first:

| DC50 (GSPT1) [nM] | GI50 (22RV1 cells) [nM] | GI50 (U937 cells) [nM] | Compound |
| --- | --- | --- | --- |
| < 250 | – | < 100 | CN(C/C=C/C(=O)N1CCC([C@@H]2CCNc3c(C(N)=O)c(-c4ccc(Oc5ccccc5)cc4)nn32)CC1)CCOCCOCCOCCOCCOCCOCCCCCCCCc1cc(Cl)cc(NC(=O)NCc2ccc3c(c2)CN(C2CCC(=O)NC2=O)C3=O)c1 (stereo partly shown) [Compound I-75] |
| < 250 | < 100 | – | CC1(C)[C@H](NC(=O)c2ccc(OCCOCCOCCOCCOCCOCCOCCc3cc(Cl)cc(NC(=O)NCc4ccc5c(c4)CN(C4CCC(=O)NC4=O)C5=O)c3)cc2)C(C)(C)[C@H]1Oc1ccc(C#N)c(Cl)c1 (stereo partly shown) [Compound I-22, N-((1r,3r)-3-(3-chloro-4-cyanophenoxy)-2,2,4,4-tetramethylcyclobutyl)-4-((20-(3-chloro-5-(3-((2-(2,6-dioxopiperidin-3-yl)-1-oxoisoindolin-5-yl)methyl)ureido)phenyl)-3,6,9,12,15,18-hexaoxaicosyl)oxy)benzamide] |
| < 250 | – | < 100 | CN(C/C=C/C(=O)N1CCC([C@@H]2CCNc3c(C(N)=O)c(-c4ccc(Oc5ccccc5)cc4)nn32)CC1)CCOCCOCCOCCOCCCCCCCCc1cc(Cl)cc(NC(=O)NCc2ccc3c(c2)CN(C2CCC(=O)NC2=O)C3=O)c1 (stereo partly shown) [Compound I-74] |
| < 250 | – | < 100 | CN(C/C=C/C(=O)N1CCC[C@@H](n2nc(-c3ccc(Oc4ccccc4)cc3)c3c(N)ncnc32)C1)CCOCCOCCOCCOCCOCCOCCCCCCCCc1cc(Cl)cc(NC(=O)NCc2ccc3c(c2)CN(C2CCC(=O)NC2=O)C3=O)c1 (stereo partly shown) [Compound I-72] |
